molecular target: T1, human PAH with the R408W mutation (Homo sapiens, UniProt P00439, R408W); assay: Cell Based Phenylalanine Flux Assay; conditions: A375 cells expressing human R408W PAH; 24 hrs compound incubation; 13C-Tyrosine by LC-MS; average where tested multiple times; read-out: AC50;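 also: after compound treatment, cells received sepiapterin plus isotope-labelled Phenylalanine for 4 hours, then labelled Tyrosine in the medium was quantified, 10-point 2-fold dilution series run in duplicate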
T1 construct: expressed in transfected cells
T1 sequence (P00439 1-452 R408W): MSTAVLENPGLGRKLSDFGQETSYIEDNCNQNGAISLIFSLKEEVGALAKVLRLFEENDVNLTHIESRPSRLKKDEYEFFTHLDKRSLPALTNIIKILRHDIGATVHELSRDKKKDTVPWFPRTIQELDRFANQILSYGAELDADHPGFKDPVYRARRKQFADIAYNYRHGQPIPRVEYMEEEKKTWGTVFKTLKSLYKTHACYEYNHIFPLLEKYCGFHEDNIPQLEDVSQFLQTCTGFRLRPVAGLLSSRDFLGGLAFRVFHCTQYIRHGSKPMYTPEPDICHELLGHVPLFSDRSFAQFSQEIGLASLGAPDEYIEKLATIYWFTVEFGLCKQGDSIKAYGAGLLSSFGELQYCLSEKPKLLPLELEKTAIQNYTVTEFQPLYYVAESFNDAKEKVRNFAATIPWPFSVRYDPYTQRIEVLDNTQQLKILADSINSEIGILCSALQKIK

SMILES | AC50 [nM]
COc1ccc(-c2nnc(C(=O)N3CCc4[nH]cnc4[C@H]3c3cc4c(C)cccn4n3)o2)nc1 [Example 817, (S)-(5-(5-methoxypyridin-2-yl)-1,3,4-oxadiazol-2-yl)(4-(4-methylpyrazolo[1,5-a]pyridin-2-yl)-6,7-dihydro-1H-imidazo[4,5-c]pyridin-5(4H)-yl)methanone] | < 500
Cc1cccn2nc([C@H]3c4nc[nH]c4CCN3C(=O)c3nnc(-c4ncccc4F)o3)cc12 [Example 818, (R)-(5-(3-fluoropyridin-2-yl)-1,3,4-oxadiazol-2-yl)(4-(4-methylpyrazolo[1,5-a]pyridin-2-yl)-6,7-dihydro-1H-imidazo[4,5-c]pyridin-5(4H)-yl)methanone] | > 5000
Cc1cccn2nc([C@@H]3c4nc[nH]c4CCN3C(=O)c3nnc(-c4ncccc4F)o3)cc12 [Example 819, (S)-(5-(3-fluoropyridin-2-yl)-1,3,4-oxadiazol-2-yl)(4-(4-methylpyrazolo[1,5-a]pyridin-2-yl)-6,7-dihydro-1H-imidazo[4,5-c]pyridin-5(4H)-yl)methanone] | < 500
Cc1cccn2nc([C@@H]3c4nc[nH]c4CCN3C(=O)c3nnc(-c4ccn(C(F)F)n4)o3)cc12 [Example 822, (S)-(5-(1-(difluoromethyl)-1H-pyrazol-3-yl)-1,3,4-oxadiazol-2-yl)(4-(4-methylpyrazolo[1,5-a]pyridin-2-yl)-6,7-dihydro-1H-imidazo[4,5-c]pyridin-5(4H)-yl)methanone] | < 500
O=C(c1nnc(-c2ccn(C(F)F)n2)o1)N1CCc2[nH]cnc2[C@H]1c1cc2c(F)cccn2n1 [Example 825, (S)-(5-(1-(difluoromethyl)-1H-pyrazol-3-yl)-1,3,4-oxadiazol-2-yl)(4-(4-fluoropyrazolo[1,5-a]pyridin-2-yl)-6,7-dihydro-1H-imidazo[4,5-c]pyridin-5(4H)-yl)methanone] | < 500
Cn1cc(-c2nnc(C(=O)N3CCc4[nH]cnc4[C@H]3c3cc4c(C(F)(F)F)cccn4n3)o2)cn1 [Example 828, (S)-(5-(1-methyl-1H-pyrazol-4-yl)-1,3,4-oxadiazol-2-yl)(4-(4-(trifluoromethyl)pyrazolo[1,5-a]pyridin-2-yl)-6,7-dihydro-1H-imidazo[4,5-c]pyridin-5(4H)-yl)methanone] | < 500
O=C(c1nnc(-c2ccncc2)o1)N1CCc2[nH]cnc2[C@@H]1c1cc2c(F)cccn2n1 [Example 831, (R)-(4-(4-fluoropyrazolo[1,5-a]pyridin-2-yl)-6,7-dihydro-1H-imidazo[4,5-c]pyridin-5(4H)-yl)(5-(pyridin-4-yl)-1,3,4-oxadiazol-2-yl)methanone] | 1000 to 5000
O=C(c1nnc(-c2cnn(S(=O)(=O)C3CC3)c2)o1)N1CCc2[nH]cnc2[C@H]1c1cc2c(F)cccn2n1 [Example 834, (S)-(5-(1-(cyclopropylsulfonyl)-1H-pyrazol-4-yl)-1,3,4-oxadiazol-2-yl)(4-(4-fluoropyrazolo[1,5-a]pyridin-2-yl)-6,7-dihydro-1H-imidazo[4,5-c]pyridin-5(4H)-yl)methanone] | 500 to 1000
Cc1cccn2nc([C@@H]3c4nc[nH]c4CCN3C(=O)c3ncnn3C)cc12 [Example 838, (S)-(1-methyl-1H-1,2,4-triazol-5-yl)(4-(4-methylpyrazolo[1,5-a]pyridin-2-yl)-6,7-dihydro-1H-imidazo[4,5-c]pyridin-5(4H)-yl)methanone] | < 500
Cn1ncnc1C(=O)N1CCc2[nH]cnc2[C@H]1c1cc2c(F)cccn2n1 [Example 840, (S)-(4-(4-fluoropyrazolo[1,5-a]pyridin-2-yl)-6,7-dihydro-1H-imidazo[4,5-c]pyridin-5(4H)-yl)(1-methyl-1H-1,2,4-triazol-5-yl)methanone] | 500 to 1000
Cn1ncnc1C(=O)N1CCc2[nH]cnc2[C@@H]1c1cc2c(F)cccn2n1 [Example 841, (R)-(4-(4-fluoropyrazolo[1,5-a]pyridin-2-yl)-6,7-dihydro-1H-imidazo[4,5-c]pyridin-5(4H)-yl)(1-methyl-1H-1,2,4-triazol-5-yl)methanone] | 1000 to 5000
Cc1nn(C)cc1-c1nnc(C(=O)N2CCc3[nH]cnc3[C@@H]2c2cc3c(C)cccn3n2)o1 [Example 845, (R)-(5-(1,3-dimethyl-1H-pyrazol-4-yl)-1,3,4-oxadiazol-2-yl)(4-(4-methylpyrazolo[1,5-a]pyridin-2-yl)-6,7-dihydro-1H-imidazo[4,5-c]pyridin-5(4H)-yl)methanone] | > 5000

Next, values leading:

AC50 [nM] | SMILES
> 5000 | COc1ccc(-c2nnc(C(=O)N3CCc4[nH]cnc4[C@@H]3c3cc4c(C)cccn4n3)o2)nc1 [Example 816, (R)-(5-(5-methoxypyridin-2-yl)-1,3,4-oxadiazol-2-yl)(4-(4-methylpyrazolo[1,5-a]pyridin-2-yl)-6,7-dihydro-1H-imidazo[4,5-c]pyridin-5(4H)-yl)methanone]
< 500 | Cc1cccn2nc([C@@H]3c4nc[nH]c4CCN3C(=O)c3nnc(-c4cnn(C(F)F)c4)o3)cc12 [Example 820, (S)-(5-(1-(difluoromethyl)-1H-pyrazol-4-yl)-1,3,4-oxadiazol-2-yl)(4-(4-methylpyrazolo[1,5-a]pyridin-2-yl)-6,7-dihydro-1H-imidazo[4,5-c]pyridin-5(4H)-yl)methanone]
> 5000 | Cc1cccn2nc([C@H]3c4nc[nH]c4CCN3C(=O)c3nnc(-c4cnn(C(F)F)c4)o3)cc12 [Example 821, (R)-(5-(1-(difluoromethyl)-1H-pyrazol-4-yl)-1,3,4-oxadiazol-2-yl)(4-(4-methylpyrazolo[1,5-a]pyridin-2-yl)-6,7-dihydro-1H-imidazo[4,5-c]pyridin-5(4H)-yl)methanone]
1000 to 5000 | Cc1cccn2nc([C@H]3c4nc[nH]c4CCN3C(=O)c3nnc(-c4ccn(C(F)F)n4)o3)cc12 [Example 823, (R)-(5-(1-(difluoromethyl)-1H-pyrazol-3-yl)-1,3,4-oxadiazol-2-yl)(4-(4-methylpyrazolo[1,5-a]pyridin-2-yl)-6,7-dihydro-1H-imidazo[4,5-c]pyridin-5(4H)-yl)methanone]
> 5000 | O=C(c1nnc(-c2ccn(C(F)F)n2)o1)N1CCc2[nH]cnc2[C@@H]1c1cc2c(F)cccn2n1 [Example 824, (R)-(5-(1-(difluoromethyl)-1H-pyrazol-3-yl)-1,3,4-oxadiazol-2-yl)(4-(4-fluoropyrazolo[1,5-a]pyridin-2-yl)-6,7-dihydro-1H-imidazo[4,5-c]pyridin-5(4H)-yl)methanone]
> 5000 | Cn1cc(-c2nnc(C(=O)N3CCc4[nH]cnc4[C@@H]3c3cc4c(C(F)(F)F)cccn4n3)o2)cn1 [Example 829, (R)-(5-(1-methyl-1H-pyrazol-4-yl)-1,3,4-oxadiazol-2-yl)(4-(4-(trifluoromethyl)pyrazolo[1,5-a]pyridin-2-yl)-6,7-dihydro-1H-imidazo[4,5-c]pyridin-5(4H)-yl)methanone]
< 500 | O=C(c1nnc(-c2ccncc2)o1)N1CCc2[nH]cnc2[C@H]1c1cc2c(F)cccn2n1 [Example 830, (S)-(4-(4-fluoropyrazolo[1,5-a]pyridin-2-yl)-6,7-dihydro-1H-imidazo[4,5-c]pyridin-5(4H)-yl)(5-(pyridin-4-yl)-1,3,4-oxadiazol-2-yl)methanone]
< 500 | O=C(c1nnc(-c2cnn(C3CCC3)c2)o1)N1CCc2[nH]cnc2[C@H]1c1cc2c(F)cccn2n1 [Example 832, (S)-(5-(1-cyclobutyl-1H-pyrazol-4-yl)-1,3,4-oxadiazol-2-yl)(4-(4-fluoropyrazolo[1,5-a]pyridin-2-yl)-6,7-dihydro-1H-imidazo[4,5-c]pyridin-5(4H)-yl)methanone]
> 5000 | O=C(c1nnc(-c2cnn(S(=O)(=O)C3CC3)c2)o1)N1CCc2[nH]cnc2[C@@H]1c1cc2c(F)cccn2n1 [Example 835, (R)-(5-(1-(cyclopropylsulfonyl)-1H-pyrazol-4-yl)-1,3,4-oxadiazol-2-yl)(4-(4-fluoropyrazolo[1,5-a]pyridin-2-yl)-6,7-dihydro-1H-imidazo[4,5-c]pyridin-5(4H)-yl)methanone]
< 500 | O=C(c1ccnn1C(F)(F)F)N1CCc2[nH]cnc2[C@H]1c1cc2c(F)cccn2n1 [Example 842, (S)-(4-(4-fluoropyrazolo[1,5-a]pyridin-2-yl)-6,7-dihydro-1H-imidazo[4,5-c]pyridin-5(4H)-yl)(1-(trifluoromethyl)-1H-pyrazol-5-yl)methanone]
1000 to 5000 | O=C(c1ccnn1C(F)(F)F)N1CCc2[nH]cnc2[C@@H]1c1cc2c(F)cccn2n1 [Example 843, (R)-(4-(4-fluoropyrazolo[1,5-a]pyridin-2-yl)-6,7-dihydro-1H-imidazo[4,5-c]pyridin-5(4H)-yl)(1-(trifluoromethyl)-1H-pyrazol-5-yl)methanone]
< 500 | Cc1nn(C)cc1-c1nnc(C(=O)N2CCc3[nH]cnc3[C@H]2c2cc3c(C)cccn3n2)o1 [Example 844, (S)-(5-(1,3-dimethyl-1H-pyrazol-4-yl)-1,3,4-oxadiazol-2-yl)(4-(4-methylpyrazolo[1,5-a]pyridin-2-yl)-6,7-dihydro-1H-imidazo[4,5-c]pyridin-5(4H)-yl)methanone]
< 500 | Cc1nn(C)cc1-c1nnc(C(=O)N2CCc3[nH]cnc3[C@H]2c2cc3c(F)cccn3n2)o1 [Example 846, (S)-(5-(1,3-dimethyl-1H-pyrazol-4-yl)-1,3,4-oxadiazol-2-yl)(4-(4-fluoropyrazolo[1,5-a]pyridin-2-yl)-6,7-dihydro-1H-imidazo[4,5-c]pyridin-5(4H)-yl)methanone]
